In patent US20220177456A1, “COMPOUNDS, COMPOSITIONS AND METHODS” (Denali Therapeutics Inc., priority 2019, published 2022) one finds IC50 data, which are given here for ten molecules.

The structures appear in SMILES notation.

For this experiment, the system named is ISR pathway (ATF4 translation), H4 ATF4-NLuc (clone 17) cell line. Kind of experiment: ATF4 Nano Luciferase reporter integrated stress response (ISR) assay in H4 ATF4-NLuc cells. In kind it is cell-based. Particulars: human H4 neuroglioma ATF4-NLuc cells; compound 30 minutes, then 50 μm sodium arsenite for 6 hours; luminescence readout. From the text: Cellular stress leads to activation of the integrated stress response pathway through one of four eukaryotic initiation factor 2α kinases and halts global translation, while allowing for the translation of select transcripts like ATF4 (activating transcription factor 4) that are important for the response to cellular stress. During normal conditions, small open reading frames (ORFs) in the 5′ UTR of ATF4 occupy the ribosome and prevent translation of the coding sequence of ATF4. During stress conditions however, the ribosome scans past these upstream ORFs and preferentially begins translation at the coding sequence of ATF4. In this way, the translation, and thus protein level of ATF4 is a readout of ISR pathway activation. Thus, a fusion of the uORFs and the beginning of the coding sequence of ATF to a common cellular reporter like nano-luciferase allows for a sensitive and high-throughput readout of ISR pathway activity.
Compounds as provided herein were tested in the following assay. The ATF4 Nano Luciferase reporter was constructed by fusing the human full length 5′ untranslated region (5′-UTR) and a small portion of the coding sequence of the ATF4 gene upstream of the Nano Luciferase (NLuc) coding sequence lacking it's start codon. Specifically, nucleotides +1 through +364 (relative to the transcriptional start site) of ATF4 transcript variant 2 (NCBI NM_182810.2) flanked 5′ by EcoRI and 3′ by BamHI restriction enzyme sites were synthesized and cloned into the EcoRI/BamHI cloning sites of pLVX-EF1a-IRES-Puro lentivirus vector (Clontech). Lentiviral particles were produced with Lenti-X single shots (VSV-G, Clontech) according to the manufacturer's instructions and used to transduce a human H4 neuroglioma cell line (ATCC HT1B-148). H4 cells were selected with 1.25 μg/mL Puromycin, and clonal cell lines generated by limiting dilution. We utilized this cell line to generate an integrated stress response (ISR) assay to evaluate the activity of ISR pathway inhibitors via luminescence readout. The H4 ATF4-NLuc (clone 17) cell line is plated at a density of […] cells in 96-well or 384-well respectively in DMEM +10% fetal bovine serum. 24-hours later test compounds diluted in dimethyl sulfoxide (DMSO) are added for 30 minutes at 37° C., followed by ISR pathway activation with 50 μm sodium arsenite aqueous solution for 6 additional hours. Nano Glo luciferase reagent (N1150, Promega) is added according to manufacturer instructions and the luminescence signal (corresponding to the level of ATF4 translation and thus ISR pathway activation) is read with a standard plate reader with luminescence detection capabilities.
In the tables below, activity of the tested compounds is provided, and in Table 3 as follows: +++=0.003 μM<IC50<1 μM; ++=IC50 1-10 μM; +=IC50>10 μM.
One may read the IC50 as the midpoint of a concentration-inhibition curve. Read a high IC50 as weaker potency in that assay. Regarding `O=C(COc1ccc(Cl)cc1)N[C@@H]1CC[C@@H](C(=O)N2CCc3cc(Cl)ccc3C2)OC1` [Example 22, 2-(4-chlorophenoxy)-N-[(3R,6S)-6-(6-chloro-3,4-dihydro-1H-isoquinoline-2-carbonyl)tetrahydropyran-3-yl]acetamide], the half-maximal inhibitory concentration (IC50) was 0.003 to 1 µM.

On to `O=C(NCC1CC(OC(F)(F)F)C1)[C@@H]1CC[C@@H](n2cnc(-c3ccc(Cl)c(F)c3)c2)CO1` (stereo partly drawn) [Example 23, (2S,5R)-5-[4-(4-chloro-3-fluoro-phenyl)imidazol-1-yl]-N-[[3-(trifluoromethoxy)cyclobutyl]methyl] tetrahydropyran-2-carboxamide], for which the IC50 is 0.003 to 1 µM.

Molecule `O=C(N[C@H]1C[C@@H](COC(F)(F)F)C1)[C@@H]1CC[C@@H](n2cnc(-c3ccc(Cl)c(F)c3)c2)CO1` [Example 24, (2S,5R)-5-[4-(4-chloro-3-fluoro-phenyl)imidazol-1-yl]-N-[3-cis-(trifluoromethoxymethyl)cyclobutyl] tetrahydropyran-2-carboxamide] gave an IC50 of 0.003 to 1 µM.

`O=C(N[C@H]1C[C@@H](OC(F)(F)F)C1)[C@@H]1CC[C@@H](n2cnc(-c3ccc(Cl)c(F)c3)c2)CO1` [Example 25, (2S,5R)-5-[4-(4-chloro-3-fluoro-phenyl)imidazol-1-yl]-N-[3-cis-(trifluoromethoxy)cyclobutyl] tetrahydropyran-2-carboxamide]: the IC50 was 0.003 to 1 µM.

The molecule `O=C(NC[C@H]1C[C@@H](OC(F)(F)F)C1)[C@@H]1CC[C@@H](n2cnc(-c3ccc(Cl)c(F)c3)c2)CO1` [Example 26, (2S,5R)-5-[4-(4-chloro-3-fluoro-phenyl)imidazol-1-yl]-N-[[3-cis-(trifluoromethoxy)cyclobutyl]methyl] tetrahydropyran-2-carboxamide] gave a half-maximal inhibitory concentration (IC50) of 0.003 to 1 µM.

`O=C(COc1ccc(Cl)cc1)N[C@@H]1CC[C@@H](C(=O)NCc2ccc(C(F)(F)F)cn2)OC1` [Example 27, (2S,5R)-5-[[2-(4-chlorophenoxy)acetyl]amino]-N-[[5-(trifluoromethyl)-2-pyridyl]methyl] tetrahydropyran-2-carboxamide] gave a half-maximal inhibitory concentration (IC50) of 0.003 to 1 µM.

Molecule `O=C(COc1ccc(C(F)(F)F)cc1)N[C@@H]1CC[C@@H](C(=O)Nc2ccc3cc(C(F)(F)F)ccc3n2)OC1` [Example 28, (2S,5R)-5-[[2-[4-(trifluoromethyl)phenoxy]acetyl]amino]-N-[6-(trifluoromethyl)-2-quinolyl]tetrahydropyran-2-carboxamide] registered a concentration for half-maximal inhibition (IC50) of 0.003 to 1 µM.

As to `O=C(COc1ccc(Cl)cc1)N[C@@H]1CC[C@@H](C(=O)NCc2ccc(Cl)cc2)OC1` [Example 29, (2S,5R)-5-[[2-(4-chlorophenoxy)acetyl]amino]-N-[(4-chlorophenyl)methyl] tetrahydropyran-2-carboxamide], the half-maximal inhibitory concentration (IC50) lay in the range of 0.003 to 1 µM.

On to `O=C(COc1ccc(Cl)c(F)c1)N[C@@H]1CC[C@@H](C(=O)N2CCC(OC(F)(F)F)CC2)OC1` [Example 30, 2-(4-chloro-3-fluoro-phenoxy)-N-[(3R,6S)-6-[4-(trifluoromethoxy)piperidine-1-carbonyl]tetrahydropyran-3-yl]acetamide], for which the half-inhibitory concentration (IC50) is 0.003 to 1 µM.

On to `O=C(COc1ccc(Cl)c(F)c1)N[C@@H]1CC[C@@H](C(=O)N2CCC(OC(F)(F)F)C2)OC1` (stereo partly drawn) [Example 31, 2-(4-chloro-3-fluoro-phenoxy)-N-[(3R,6S)-6-[3-(trifluoromethoxy)pyrrolidine-1-carbonyl]tetrahydropyran-3-yl]acetamide], for which the IC50 was 0.003 to 1 µM.
